# Literature values as cited in patent US20250177407A1 (Closed Loop Medicine Ltd., priority 2023, published 2025).
# Read-outs that look alike come from different tables or passages of the source. Marks after values point to notes of the source that are not given here.
# What was measured:
# [1] = not given; remark: listed apart in the source
# [2] = not given; remark: listed apart in the source
# [3] = not given; remark: listed apart in the source
# [4] = not given; remark: listed apart in the source
# [5] = tested on: prothrombin time
# [6] = target: factor Xa activity (Homo sapiens, UniProt P00742)
# [7] = tested on: patients with nonvalvular AF; details: ROCKET-AF
# [8] = tested on: patients with AF; details: management of AF
# [9] = clearance adjustment, comedication
# factor Xa activity, sequence (P00742 235-488 limits assumed): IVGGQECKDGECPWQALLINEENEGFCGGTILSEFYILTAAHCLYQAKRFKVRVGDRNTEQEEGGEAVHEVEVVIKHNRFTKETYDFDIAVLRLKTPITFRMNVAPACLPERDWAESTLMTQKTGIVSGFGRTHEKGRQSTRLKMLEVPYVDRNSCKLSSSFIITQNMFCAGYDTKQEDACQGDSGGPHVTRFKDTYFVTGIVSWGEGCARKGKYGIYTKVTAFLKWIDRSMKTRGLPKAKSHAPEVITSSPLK
# factor Xa activity, sequence (P00742 41-179 partner limits assumed): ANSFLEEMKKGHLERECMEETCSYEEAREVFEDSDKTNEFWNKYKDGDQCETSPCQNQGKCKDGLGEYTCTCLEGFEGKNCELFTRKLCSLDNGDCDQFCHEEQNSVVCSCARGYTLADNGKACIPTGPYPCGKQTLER
smiles,measurement,setting,value
O=C(NC[C@H]1CN(c2ccc(N3CCOCC3=O)cc2)C(=O)O1)c1ccc(Cl)s1 [rivaroxaban],bioavailability,"20 mg tablets, fasting, healthy subjects",approximately 66%
same,variability in drug plasma levels for a given dose,between patients,6- to 10 fold
same,half-life,elderly,11 to 13 h
same,half life,elderly patients,~12 h
same,half-life,healthy volunteers,5 to 9 h
same,fraction of absorbed drug eliminated unchanged via the kidney,"human, in vivo",30%
same,fraction of absorbed drug metabolised by hepatic CYP 3A4/5 and CYP-independent enzymes,"human, in vivo",Approximately 60%
same,time to peak levels,once daily immediate release with food,1 to 2 h
same,bioavailability,"oral 2.5 and 10 mg tablets, not affected by food",80-100%
same,time to peak concentration,oral administration,2 to 4 h
same,half-life,population not specified,5 to 9 h
same,half life,young patients,5 to 9 h
same,plasma protein binding,[1],92-95%
same,interethnic differences in PK and PD characteristics,"[2]; Caucasian, African-American, Hispanic, Japanese, Chinese patients (EMA)",no clinically relevant interethnic differences
same,higher exposure compared to other ethnicities,"[2]; healthy Japanese subjects, on average (FDA)",20-40%
same,increase in AUC compared with healthy subjects,[2]; mild (Child-Pugh A) hepatic impairment,15%
same,increase in exposure,[2]; mild renal impairment (CrCl 50-79 mL/min),44%
same,increase in the effect-time curve AUC,[2]; moderate hepatic impairment,159%
same,prothrombin time,[2]; moderate hepatic impairment,significant prolongation
same,increase in exposure,[2]; moderate renal impairment (CrCl 30-49 mL/min),52%
same,increase in exposure,[2]; severe renal impairment (CrCl<30 mL/min),64%
same,"θCL/F, P-gp inhibitor","[3]; clearance adjustment, P-gp inhibitor comedication",0.996 Proportion
same,"θCL/F, VTE ≤72 hr","[3]; clearance adjustment, VTE prevention after hip or knee surgery, less than 72 hours",1.04 Proportion
same,"θCL/F, VTE >72 hr","[3]; clearance adjustment, VTE prevention after hip or knee surgery, more than 72 hours",1.29 Proportion
same,"θCL/F, ACS","[3]; clearance adjustment, acute coronary syndrome",1.14 Proportion
same,"θCL/F, CYP3A4 inducer",[3]; [9],1.3 Proportion
same,"θCL/F, Medium CYP3A4 inhibitor",[3]; [9],0.863 Proportion
same,"θCL/F, Strong CYP3A4 inhibitor",[3]; [9],0.978 Proportion
same,"θCL/F, Weak CYP3A4 inhibitor",[3]; [9],0.939 Proportion
same,"θCL/F, AF","[3]; clearance adjustment, stroke prevention in AF",0.849 Proportion
same,"θV/F, Age",[3]; covariate effect of age on V/F,−0.189 Power
same,"θCL/F, Weight",[3]; covariate effect of body weight on CL/F,−0.278 Power
same,"θV/F, Weight",[3]; covariate effect of body weight on V/F,0.216 Power
same,"θCL/F, CRCL",[3]; covariate effect of creatinine clearance on CL/F,0.406 Power
same,"θV/F, Sex",[3]; covariate effect of sex on V/F,0.889 Proportion
same,ω^2CL/F,[3]; inter-individual variability,0.167 Variance
same,"ω^2CL/F, V/F",[3]; inter-individual variability,0.0674 Covariance
same,ω^2Ka,[3]; inter-individual variability,0.628 Variance
same,ω^2V/F,[3]; inter-individual variability,0.0391 Variance
same,"CL/F, apparent clearance",[3]; population PK estimate,6.58 L/h
same,"Ka, first-order absorption rate constant",[3]; population PK estimate,0.821 h⁻¹
same,"V/F, apparent volume of distribution",[3]; population PK estimate,62.5 L
same,D50,[3]; relative bioavailability model,14.4 mg
same,σ^2prop,[3]; residual variability,0.203 Variance
same,increase in drug level exposure (AUC),"[4]; CrCl = 30, relative to median CrCl of 69 for the RE-LY study data",1.8 fold
same,increase in drug level exposure (AUC),"[4]; CrCl = 50, relative to median CrCl of 69 for the RE-LY study data",1.3 fold
same,increase in drug level exposure (AUC),[4]; South Asians compared to other ethnicities,~26% increase in South Asians compared to
same,increase in drug level exposure (AUC) per year older,"[4]; age, compared to 72 yr",0.41% increase per year older compared to 72 yr
same,decrease in drug level exposure (AUC),[4]; comedication PPIs,~13% decrease
same,increase in drug level exposure (AUC),[4]; comedication amiodarone,12% increase
same,increase in drug level exposure (AUC),[4]; comedication verapamil,23% increase
same,increase in drug level exposure (AUC),[4]; females compared to men,~9% increase in females compared to men
same,decrease in Vd,[4]; haemoglobin above 14.3 g · dL^−1,by 4%/1 g · dL^−1 above 14.3 g · dL^−1
same,effect of low weight on Cmax,[4]; in vivo,increase Cmax
same,increase in drug level exposure (AUC),[4]; patients with heart failure,~7% increase in patients with HF
same,increase in distribution volume (Vd) per kg above 80 kg,[4]; weight,in distribution volume (Vd) by 0.8%
same,slope of prothrombin time versus plasma concentration,"[5]; Esmueti et al. (2022), Fisherbrand reagent",0.018 s/(μg/ L)
same,Hill,[5]; Zhao et al. (2022),1.37 ^b
same,slope of prothrombin time versus plasma concentration,[5]; Zhao et al. (2022),0.0018 ^b s/(μg/L)
same,Emax,[6]; Girgis et al. (2014),107%
same,Emax,[6]; Mueck et al. (2007),0.86 U/ml
same,Emax,"[6]; Mueck et al. (2008b), KRS",0.837 U/ml
same,Emax,"[6]; Mueck et al. (2008b), day 1, HRS",0.881 U/ml
same,Emax,"[6]; Mueck et al. (2008b), steady state, HRS",0.942 U/ml
same,FXa0 (second entry of the cell),[6]; Tanigawa et al. (2013),0.928 U/mL
same,Hill,[6]; Tanigawa et al. (2013),1.16
same,rate of fatal stroke,[7],1.7 % per year
same,risk of intracranial bleeds,[7],0.5%
CC(=O)CC(c1ccccc1)c1c(O)c2ccccc2oc1=O (stereo not shown) [warfarin],reduction of stroke,[8],about 60%
same,rate of fatal stroke,[7],2.2 % per year
